“And” between values parts separate entries of the source, which are not always exact repeats. Equal values may be shown once. Read-outs that look alike come from different tables or passages of the source.
Legend:
[1] = MTT cell viability assay, PD-L1- cells; format: cell-based; conditions: human, A375 cells (human melanoma, PD-L1 negative), LP-F 0-100 μM
Experimental: (§1) Human melanoma cell line A375 (PD-L1^-) and human PD-L1 gene-transfected A375 cells (A375-hPD-L1, PD-L1^+) were cultured according to previous work.
(§2) Each well was seeded with 1 × 10^4 cancer cells in 96-well plates. LP-F dissolved in DMEM with gradient concentration (0, 12.5, 25, 50 and 100 μM) was added to each well at triple parallels, respectively, and incubated for 24 h. Then, MTT (5 mg/mL, 20 μL/well) was added and incubated for 4 h. 150 μL DMSO was added each well and shaken vigorously for 10 min to dissolve MTT crystallization. The absorbance of each sample was detected at 490 nm by ELISA, and percent cell viability was calculated based on Eq.: Percentage = sample well/reference well × 100%

[2] = MTT cell viability assay, PD-L1+ cells; format: cell-based; conditions: human, A375-hPD-L1 cells (PD-L1-transfected human melanoma A375), LP-F 0-100 μM
Experimental: as §1, §2

A375-hPD-L1 tumor = assay: Micro-PET imaging, PD-L1+ tumor; format: in vivo, mice
Source text: (§3) Female BALB/c nude mice at age of 5~7 weeks were inoculated subcutaneously with 1 × 10^6 A375-hPD-L1 cells in saline at the left flank and 1 × 10^6 A375 cells at the right flank in the same mouse in order to eliminate individual differences. Animal study can be performed in accordance with the principles laid out by the ethical committee of Jiangsu Institute of Nuclear Medicine.
(§4) A375 (right)/A375-hPD-L1 (left) bilateral tumor-bearing mice (n = 3) were anesthetized and then intravenously injected with [^18F] LP-F (~7.4 MBq) dissolved in saline (200 μL). Dynamic scanning was performed for one hour. ASIPro software (Siemens) was applied to process the PET images. Dynamic images were reconstructed in OSEM3D/MAP algorithm and split into twelve frames. Quantification and analysis of region of interest (ROI) in tumors and organs were carried out.

[3] = Partition coefficient test (1-octanol/water); format: physicochemical
Experimental: Amounts of 0.37 MBq [^18F]LP-F, 1000 μL water and 1000 μL 1-octanol were mixed in a tube. The mixture was thoroughly shaken for 5 min. After centrifugation, 500 μL water was withdrawn from water phase and its radioactivity was measured by a gamma counter. An equal volume of 1-octanol was withdrawn from the organic phase and measured. The partition coefficient (Log P) was calculated based on Eq. Log P = Lg(Concentration of [^18F]LP-F in 1-octanol/Concentration of [^18F]LP-F in water)
Then, 500 μL water and 500 μL 1-octanol were added to the above tube to replenish the water and the organic phase. The two-phase system was shaken again. Water and the organic phase were sampled and measured and Log P was calculated again. Repeat two more times.

[4] = Micro-PET imaging, non-target tissues (muscle, bone); format: in vivo, mice; conditions: up to 60 min
Source text: as §3, §4

A375 cells = assay: Cell uptake of the tracer, PD-L1- cells; format: cell-based, human; conditions: 4 h
Experimental: as §1
(§5) A375 cells and A375-hPD-L1 cells (1 × 10^6) were added to each tube, separately. [^18F]LP-F (37 kBq/tube) diluted in DMEM was added and incubated at 37 °C for different periods (30, 60, 120, and 240 min). PD-L1^+ cells were incubated with 100 μL 25 μM LP-F for 30 min ahead to block PD-L1^+ cells and then incubated with [^18F]LP-F (37 kBq/tube) at same conditions. After incubation and wash, the cells’ radioactivity was measured.

A375-hPD-L1 cells = assay: Cell uptake of the tracer, PD-L1+ cells; format: cell-based, human; conditions: for cell uptake after blockade by LP-F: PD-L1+ cells blocked with 25 μM LP-F; for cell uptake: PD-L1+ cells
Experimental: as §1, §5

PD-L1 = biological target: T1, PD-L1 (Homo sapiens, UniProt Q9NZQ7); assay: Saturation binding assay on PD-L1+ cells; conditions: PD-L1+ cell, one-site model, read-out: dissociation constant (Kd)
T1 construct: expressed in transfected cells; host or cells: A375 human melanoma cells transfected with the human PD-L1 gene (A375-hPD-L1)
Experimental: as §1
PD-L1^+ cells (2 × 10^5) were added to each tube and incubated with the gradient of concentration of [^18F]LP-F dissolved in DMEM (0 to 128 nM) at 37 °C for 1 h. After incubation, the cells were centrifuged and washed by PBS twice and then were measured for radioactivity by a γ counter as total bound value. For the non-specific bound value, PD-L1^+ cells (2 × 10^5) were added to each tube and incubated with LP-F (50 μM) dissolved in DMEM for half an hour in advance and then incubated with above concentrations of [^18F]LP-F. After centrifugation and wash, the radioactivity was detected. The specific binding value is obtained by subtracting non-specific bound value from total bound value. The equilibrium dissociation constant (Kd) was calculated by non-linear fit in a one-site model through specific binding values and concentrations of [^18F]LP-F.

A375 tumor = assay: Micro-PET imaging, PD-L1- tumor; format: in vivo, mice
Source text: as §3, §4

[5] = In vitro stability assay in mouse serum (radio-HPLC); format: in vitro ADME; conditions: 37 °C, 4 h
Experimental: (§6) In order to investigate the in vitro stability of the radioactive probe, [^18F]LP-F (~14.8 MBq, 40 μL) was incubated in PBS (pH 7.4, 360 μL) at 37 °C for 4 h. [^18F]LP-F (~14.8 MBq, 40 μL) was also mixed with mouse serum (360 μL) and maintained at 37 °C for 4 h. Such PBS solution was subjected to stability analysis using radio-HPLC at 0, 1, 2 and 4 h. A 30 μL sample from the above mouse serum after protein precipitation with 30 μL acetonitrile was also subjected to stability analysis at 0, 1, 2 and 4 h.

[6] = In vitro stability assay in PBS (radio-HPLC); format: physicochemical; conditions: PBS pH 7.4, 37 °C, 4 h
Experimental: as §6

T1 sequence (Q9NZQ7 19-290): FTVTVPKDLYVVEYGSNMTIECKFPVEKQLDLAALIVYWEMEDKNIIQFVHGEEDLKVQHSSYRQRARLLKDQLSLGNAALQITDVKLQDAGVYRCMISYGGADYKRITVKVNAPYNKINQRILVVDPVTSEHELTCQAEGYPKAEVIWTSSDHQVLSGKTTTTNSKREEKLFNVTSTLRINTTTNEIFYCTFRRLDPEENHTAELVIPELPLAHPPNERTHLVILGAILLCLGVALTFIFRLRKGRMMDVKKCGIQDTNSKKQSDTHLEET

SMILES: Cc1c(COc2cc(OCc3cccc(C#N)c3)c(CN3CCN(CCOCCOCCOCCF)CC3)cc2Cl)cccc1-c1ccc2c(c1)OCCO2 [LP-F]
- viability at 24 h [1]: > 90%
- viability at 24 h [2]: > 90%

SMILES: Cc1c(COc2cc(OCc3cccc(C#N)c3)c(CN3CCN(CCOCCOCCOCC[18F])CC3)cc2Cl)cccc1-c1ccc2c(c1)OCCO2 [[^18F]LP-F]
- ratio of PD-L1+ tumor uptake to PD-L1- tumor uptake (A375-hPD-L1 tumor; 50 min): 2.95 ± 0.39 times
- tumor-to-muscle ratio (T/M) (A375-hPD-L1 tumor; PD-L1+ tumor, 30 min post injection): 2.08 ± 0.38
- maximum tumor uptake (A375-hPD-L1 tumor; PD-L1+ tumor, 50 min): 3.53 ± 0.46 %ID/mL
- tumor-to-muscle ratio (T/M) (A375-hPD-L1 tumor; PD-L1+ tumor, 50 min): 2.20 ± 0.29
- logP ([3]; mean ± SD, read-out: partition coefficient (Log P)): 2.18 ± 0.16
- Log P (single trial) ([3]; trials 1-3): 2.08 and 2.10
- logP ([3]; trials 1-3, read-out: Log P (single trial)): 2.37
- activity on the bone (defluorination, in vivo stability) [4]: no obvious activity on the bone
- maximum cell uptake (A375 cells): 1.41 ± 0.09 %AD
- cell uptake after blockade by LP-F (A375-hPD-L1 cells; 0.5 h): 1.42 ± 0.03 %AD
- cell uptake after blockade by LP-F (A375-hPD-L1 cells; 4 h): 1.72 ± 0.02 %AD
- cell uptake (A375-hPD-L1 cells; 30 min): 3.66 ± 0.20 %AD
- cell uptake (A375-hPD-L1 cells; 4 h): 3.64 ± 0.19 %AD
- Kd (PD-L1): 226 nM
- tumor-to-muscle ratio (T/M) (A375 tumor; 10 min): 0.82 ± 0.24
- tumor-to-muscle ratio (T/M) (A375 tumor; 50 min): 0.75 ± 0.19
- maximum tumor uptake (A375 tumor; 60 min): 1.23 ± 0.39 %ID/mL
- tumor-to-muscle ratio (T/M) (A375 tumor; all the time): below 1
- stability in mouse serum [5]: high stability
- stability in PBS [6]: high stability

From article PMC9968138, “Design, Synthesis, and Biological Evaluation of a Small-Molecule PET Agent for Imaging PD-L1 Expression” (Pharmaceuticals, 2023)
